Experimental data published in patent publication US8853230B2, “Inhibitors of JAK” (Portola Pharmaceuticals, Inc., priority 2009, dated 2014).

Legend:
Assay type in all cases: biochemical
JAK3 = biological target: T1, JAK3 (Homo sapiens, UniProt P52333); assay: Z'-LYTE kinase assay, JAK3 tyrosine phosphorylation activity
T1 construct: 5 μl of catalytic domain recombinant Kinase enzyme+Tyr peptide substrate (Invitrogen, Calif.); purchased Invitrogen
Procedure, shortened: (§1)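 Catalytic domain + Tyr6 peptide + ATP + cpd (1% DMSO), 1 h RT; development protease 1 h RT; FRET ex 400/em 445, 520 nm; % phosphorylation vs no-inhibitor; IC50 by 4-parameter logistic; duplicates.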

JAK2 = biological target: T2, JAK2 (Homo sapiens, UniProt O60674); assay: Z'-LYTE kinase assay, JAK2 tyrosine phosphorylation activity
T2 construct: 5 μl of catalytic domain recombinant Kinase enzyme+Tyr peptide substrate (Invitrogen, Calif.); purchased Invitrogen
Procedure, shortened: as §1

TYK2 = biological target: T3, TYK2 (Homo sapiens, UniProt P29597); assay: Z'-LYTE kinase assay, TYK2 tyrosine phosphorylation activity
T3 construct: 5 μl of catalytic domain recombinant Kinase enzyme+Tyr peptide substrate (Invitrogen, Calif.); purchased Invitrogen
T3 sequence (P29597 897-1176 limits assumed): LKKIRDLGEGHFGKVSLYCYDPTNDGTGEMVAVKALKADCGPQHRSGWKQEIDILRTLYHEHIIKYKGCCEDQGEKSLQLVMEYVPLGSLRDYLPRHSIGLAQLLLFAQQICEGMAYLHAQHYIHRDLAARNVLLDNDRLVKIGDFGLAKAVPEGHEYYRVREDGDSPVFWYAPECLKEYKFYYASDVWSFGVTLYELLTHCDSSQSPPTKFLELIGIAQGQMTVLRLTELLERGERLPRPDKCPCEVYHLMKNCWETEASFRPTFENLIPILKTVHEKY
Procedure, shortened: as §1

JAK1 = biological target: T4, JAK1 (Homo sapiens, UniProt P23458); assay: Z'-LYTE kinase assay, JAK1 tyrosine phosphorylation activity; conditions: read-out: JAK 1 IC50
T4 construct: 5 μl of catalytic domain recombinant Kinase enzyme+Tyr peptide substrate (Invitrogen, Calif.); purchased Invitrogen
Procedure, shortened: as §1

T4 sequence (P23458 875-1153 limits assumed): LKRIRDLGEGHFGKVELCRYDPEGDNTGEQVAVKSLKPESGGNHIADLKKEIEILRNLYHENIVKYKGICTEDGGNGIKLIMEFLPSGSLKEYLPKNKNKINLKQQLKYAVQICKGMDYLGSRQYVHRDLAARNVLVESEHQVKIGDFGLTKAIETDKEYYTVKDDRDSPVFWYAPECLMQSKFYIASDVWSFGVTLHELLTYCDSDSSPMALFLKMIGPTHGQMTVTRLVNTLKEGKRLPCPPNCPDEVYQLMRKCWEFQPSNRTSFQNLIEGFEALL
T1 sequence (P52333 822-1111 limits assumed): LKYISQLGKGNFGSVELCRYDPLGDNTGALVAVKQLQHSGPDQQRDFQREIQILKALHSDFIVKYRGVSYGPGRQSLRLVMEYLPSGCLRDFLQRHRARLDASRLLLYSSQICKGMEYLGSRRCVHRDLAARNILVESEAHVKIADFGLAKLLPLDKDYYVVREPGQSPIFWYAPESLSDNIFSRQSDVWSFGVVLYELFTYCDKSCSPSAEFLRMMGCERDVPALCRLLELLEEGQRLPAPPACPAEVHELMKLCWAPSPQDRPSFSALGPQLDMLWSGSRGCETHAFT
T2 sequence (O60674 849-1124 limits assumed): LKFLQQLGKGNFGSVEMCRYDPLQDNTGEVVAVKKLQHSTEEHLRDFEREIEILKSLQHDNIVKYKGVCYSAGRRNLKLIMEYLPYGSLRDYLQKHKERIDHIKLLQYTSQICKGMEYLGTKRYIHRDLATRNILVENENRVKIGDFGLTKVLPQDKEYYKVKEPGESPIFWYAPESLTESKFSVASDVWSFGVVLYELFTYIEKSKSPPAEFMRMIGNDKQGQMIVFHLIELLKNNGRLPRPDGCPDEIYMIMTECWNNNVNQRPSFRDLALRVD

| SMILES | IC50 (JAK3) [nM] | IC50 (JAK2) [nM] | IC50 (TYK2) [nM] | IC50 (JAK1) [nM] |
| --- | --- | --- | --- | --- |
| NC(=O)c1cnc(Nc2cccc(NC(=O)N3CCCC3)c2)nc1NCc1cccc(Cl)c1 [Example 180, 4-(3-chlorobenzylamino)-2-(3-(pyrrolidine-1-carboxamido)phenylamino)pyrimidine-5-carboxamide] | 1 to 10 | 10 to 100 | 10 to 100 | 10 to 100 |
| C[C@@H](Nc1nc(Nc2ccc(Cl)c(NC(=O)N3CCOCC3)c2)ncc1C(N)=O)c1ccccc1 [Example 183, (R)—N-(5-(5-carbamoyl-4-(1-phenylethylamino)pyrimidin-2-ylamino)-2-chlorophenyl)morpholine-4-carboxamide] | 1 to 10 | 10 to 100 | 10 to 100 | 100 to 1000 |
| CC(=O)Nc1cccc(Nc2ncc(C(N)=O)c(Nc3cccc4c3ccn4C)n2)c1 [Example 184, 2-(3-acetamidophenylamino)-4-(1-methyl-1H-indol-4-ylamino)pyrimidine-5-carboxamide] | 1 to 10 | 1 to 10 | 1 to 10 | 1 to 10 |
| CCn1ccc2c(Nc3nc(Nc4cccc(NC(C)=O)c4)ncc3C(N)=O)cccc21 [Example 185, 2-(3-acetamidophenylamino)-4-(1-ethyl-1H-indol-4-ylamino)pyrimidine-5-carboxamide] | 1 to 10 | 10 to 100 | 1 to 10 | 10 to 100 |
| CC(=O)Nc1cccc(Nc2ncc(C(N)=O)c(Nc3cccc4nn(C)cc34)n2)c1 [Example 186, 2-(3-acetamidophenylamino)-4-(2-methyl-2H-indazol-4-ylamino)pyrimidine-5-carboxamide] | 10 to 100 | 10 to 100 | > 1000 | > 1000 |
| CC(=O)Nc1cccc(Nc2ncc(C(N)=O)c(NCc3ccccn3)n2)c1 [Example 187, 2-(3-acetamidophenylamino)-4-(pyridin-2-ylmethylamino)pyrimidine-5-carboxamide] | 10 to 100 | 10 to 100 | 10 to 100 | 100 to 1000 |
| CC(=O)Nc1cccc(Nc2ncc(C(N)=O)c(NCc3cccnc3)n2)c1 [Example 188, 2-(3-acetamidophenylamino)-4-(pyridin-3-ylmethylamino)pyrimidine-5-carboxamide] | 1 to 10 | 10 to 100 | 10 to 100 | 100 to 1000 |
| CC(=O)Nc1cccc(Nc2ncc(C(N)=O)c(NCc3ccncc3)n2)c1 [Example 189, 2-(3-acetamidophenylamino)-4-(pyridin-4-ylmethylamino)pyrimidine-5-carboxamide] | 10 to 100 | 100 to 1000 | 10 to 100 | 100 to 1000 |
| CC(=O)Nc1cccc(Nc2ncc(C(N)=O)c(Nc3cccc4c3cnn4C)n2)c1 [Example 191, 2-(3-acetamidophenylamino)-4-(1-methyl-1H-indazol-4-ylamino)pyrimidine-5-carboxamide] | 1 to 10 | 10 to 100 | 10 to 100 | 10 to 100 |
| CC(=O)Nc1cccc(Nc2ncc(C(N)=O)c(Nc3cccc4nsnc34)n2)c1 [Example 192, 2-(3-acetamidophenylamino)-4-(benzo[c][1,2,5]thiadiazo-4-ylamino)pyrimidine-5-carboxamide] | 1 to 10 | 10 to 100 | 10 to 100 | > 1000 |
| CC(=O)Nc1cccc(Nc2ncc(C(N)=O)c(Nc3ccc(S(C)(=O)=O)cc3)n2)c1 [Example 197] | 10 to 100 | 10 to 100 | 10 to 100 | > 1000 |
| CC(=O)Nc1cccc(Nc2ncc(C(N)=O)c(Nc3ccc(N4CCOCC4)c(F)c3)n2)c1 [Example 198] | 10 to 100 | 10 to 100 | 10 to 100 | > 1000 |
| CC(=O)Nc1cccc(Nc2ncc(C(N)=O)c(Nc3cccc(-c4ncccn4)c3)n2)c1 [Example 199] | 10 to 100 | 10 to 100 | 10 to 100 | 10 to 100 |
| CNC(=O)Nc1ccc(F)c(Nc2ncc(C(N)=O)c(NCc3ccccc3)n2)c1 [Example 200, 4-(benzylamino)-2-(2-fluoro-5-(3-methylureido)phenylamino)pyrimidine-5-carboxamide] | 10 to 100 | > 1000 | 100 to 1000 | > 1000 |
| CN(C)C(=O)Nc1ccc(F)c(Nc2ncc(C(N)=O)c(NCc3ccccc3)n2)c1 [Example 201, 4-(benzylamino)-2-(5-(3,3-dimethylureido)-2-fluorophenylamino)pyrimidine-5-carboxamide] | 10 to 100 | > 1000 | 100 to 1000 | > 1000 |
| NC(=O)c1cnc(Nc2cc(NC(=O)N3CCCC3)ccc2F)nc1NCc1ccccc1 [Example 204, 4-(benzylamino)-2-(2-fluoro-5-(pyrrolidine-1-carboxamido)phenylamino)pyrimidine-5-carboxamide] | 100 to 1000 | 100 to 1000 | 100 to 1000 | 100 to 1000 |
| C[C@@H](Nc1nc(Nc2ccc(Cl)c(NC(=O)N3CCCCC3)c2)ncc1C(N)=O)c1ccccc1 [Example 205, (R)-2-(4-chloro-3-(piperidine-1-carboxamido)phenylamino)-4-(1-phenylethylamino)pyrimidine-5-carboxamide] | 10 to 100 | 100 to 1000 | 100 to 1000 | > 1000 |
| NC(=O)c1cnc(Nc2cccc(NC(=O)[C@@H]3CCCO3)c2)nc1NCc1ccccc1 [Example 206, (S)-4-(benzylamino)-2-(3-(tetrahydrofuran-2-carboxamido)phenylamino)pyrimidine-5-carboxamide] | 1 to 10 | 10 to 100 | 1 to 10 | 10 to 100 |
| C[C@@H](Nc1nc(Nc2cccc(NC(=O)[C@@H]3CCCO3)c2)ncc1C(N)=O)c1ccccc1 [Example 207, 4-((R)-1-phenylethylamino)-2-(3-((S)-tetrahydrofuran-2-carboxamido)phenylamino)pyrimidine-5-carboxamide] | 1 to 10 | 10 to 100 | 10 to 100 | 100 to 1000 |
| C[C@@H](Nc1nc(Nc2cccc(NC(=O)N3CCC(O)CC3)c2)ncc1C(N)=O)c1ccccc1 [Example 215] | 1 to 10 | 10 to 100 | 10 to 100 | 10 to 100 |
| C[C@@H](Nc1nc(Nc2cccc(NC(=O)N3CCCCC3)c2)ncc1C(N)=O)c1ccccc1 [Example 220, (R)-4-(1-phenylethylamino)-2-(3-(piperidine-1-carboxamido)phenylamino)pyrimidine-5-carboxamide] | 1 to 10 | 10 to 100 | 10 to 100 | 100 to 1000 |
| CC(=O)Nc1cc(Nc2ncc(C(N)=O)c(NCc3cccc(F)c3)n2)ccc1OCCN1CCCC1 [Example 223, 2-(3-acetamido-4-(2-(pyrrolidin-1-yl)ethoxy)phenylamino)-4-(3-fluorobenzylamino)pyrimidine-5-carboxamide] | 1 to 10 | 1 to 10 | 10 to 100 | 10 to 100 |
| CC(=O)Nc1cc(Nc2ncc(C(N)=O)c(Nc3cccc4nn(C)cc34)n2)ccc1OCCN1CCCC1 [Example 224, 2-(3-acetamido-4-(2-(pyrrolidin-1-yl)ethoxy)phenylamino)-4-(2-methyl-2H-indazol-4-ylamino)pyrimidine-5-carboxamide] | 10 to 100 | 10 to 100 | 100 to 1000 | 100 to 1000 |
| CC(=O)Nc1cccc(Nc2ncc(C(N)=O)c(NCC3CCN(C(=O)OC(C)(C)C)C3)n2)c1 (stereo not shown) [Example 225, tert-butyl 3-((2-(3-acetamidophenylamino)-5-carbamoylpyrimidin-4-ylamino)methyl)pyrrolidine-1-carboxylate] | 10 to 100 | 100 to 1000 | 100 to 1000 | 100 to 1000 |
| CC(=O)Nc1cccc(Nc2ncc(C(=O)O)c(NCC3CCNC3)n2)c1 (stereo not shown) [Example 226, 2-(3-acetamidophenylamino)-4-(pyrrolidin-3-ylmethylamino)pyrimidine-5-carboxylic acid] | 10 to 100 | 100 to 1000 | 100 to 1000 | 10 to 100 |
| CC(=O)Nc1cc(Nc2ncc(C(N)=O)c(Nc3cccc4nsnc34)n2)ccc1OCCN1CCCC1 [Example 227, 2-(3-acetamido-4-(2-(pyrrolidin-1-yl)ethoxy)phenylamino)-4-(benzo[c][1,2,5]thiadiazo-4-ylamino)pyrimidine-5-carboxamide] | 1 to 10 | 1 to 10 | 10 to 100 | 10 to 100 |
| CC(=O)Nc1cc(Nc2ncc(C(N)=O)c(NCc3cccc(F)c3)n2)ccc1OCCN(C)C [Example 228, 2-(3-acetamido-4-(2-(dimethylamino)ethoxy)phenylamino)-4-(3-fluorobenzylamino)pyrimidine-5-carboxamide] | 1 to 10 | 10 to 100 | 10 to 100 | 100 to 1000 |
| CC(=O)Nc1cc(Nc2ncc(C(N)=O)c(Nc3cccc4nn(C)cc34)n2)ccc1OCCN(C)C [Example 229, 2-(3-acetamido-4-(2-(dimethylamino)ethoxy)phenylamino)-4-(2-methyl-2H-indazol-4-ylamino)pyrimidine-5-carboxamide] | 10 to 100 | 10 to 100 | 100 to 1000 | > 1000 |
